The results in this text go back to patent publication EP0305845A1, “Pyridyl ethanol amines, pharmaceutical compositions containing them and processes for their preparation” (Dr. Karl Thomae GmbH, priority 1987, dated 1989).

SMILES strings stand for the structures. Structures can show the parent of a compound that is named as a salt.

Format in all cases: in vivo
Series [1] deals with Mäusen. Put plainly: Cardiac side effects: heart rate in mice by ECG-triggered tachograph. Conditions: 1 hour after application. The source says: Das Auftreten von unerwünschten Nebenwirkungen auf das Herz konnte für die erfindungsgemäßen Verbindungen für den therapeutisch angestrebten stoffwechselaktiven Dosisbereich ausgeschlossen werden. Als Nachweis diente die Messung der Herzfrequenz an Mäusen während der Testung auf blutzuckersenkende Wirkung (s.o.). Eine Stunde nach der oralen Applikation der Verbindungen wurde die Herzfrequenz mittels EKG-getriggertem Tachographen bestimmte. Die nachfolgende Tabelle gibt die Änderung der Herzfrequenz in % der Kontrollgruppe wieder.

The subject of series [2] is weiblichen Mäusen eigener Zucht. The series can be described thus: Antiadipose effect a): increase of lipolysis measured as rise of serum glycerol in mice. As to conditions: same procedure as the blood glucose test. The source says: (§1) Die antidiabetische Wirkung der erfindungsgemäßen Verbindungen läßt sich als eine blutzuckersenkende Wirkung bei Versuchstieren messen. Die zu untersuchenden Substanzen wurden dazu in 1,5%iger Methylzellulose suspendiert und weiblichen Mäusen eigener Zucht mittels Schlundsonde appliziert. 30 Minuten später wurde 1 g Glukose pro kg Körpergewicht in Wasser gelöst und subkutan appliziert. Weitere 30 Minuten später wurde aus dem retroorbitalen Venenplexus Blut entnommen. Aus dem Serum wurde Glukose mit der Hexokinase-Methode mit Hilfe eines Analysenphotometers bestimmt.
Die antiadipöse Wirkung der erfindungsgemäßen Verbindungen wurde in zwei Versuchsanordnungen nachgewiesen: a) In der ersten Versuchsanordnung wurde die Steigerung der Lipolyse am Anstieg des Glyzerins im Serum gemessen. Der Versuchsablauf ist identisch mit der zur Testung auf blutzuckersenkende Wirkung vorstehend beschriebenen Versuchsanordnung. Glyzerin wurde in einem kombinierten enzymatisch-kolorimetrischen Test mit Hilfe eines Analysenphotometers bestimmt. Die Ergebnisse sind in der nachfolgenden Tabelle in % einer mitgeführten Kontrollgruppe aufgeführt.

For series [3] the test system is unchanged. Put plainly: Antidiabetic effect: blood glucose lowering after subcutaneous glucose load in mice. As to conditions: 1 g/kg glucose s.c. 30 min later, serum glucose after a further 30 min.
From the text: as §1
In der nachstehenden Tabelle sind die bei dieser Versuchsanordnung beobachteten Blutzuckersenkungen in % einer mitgeführten Kontrollgruppe zusammengestellt. Die statistische Auswertung erfolgt nach dem t-Test nach Student mit p=0,05 als Signifikanzgrenze.

Series [4] relates to Mäusen. Put plainly: Antiadipose effect b): decrease of ovarian fat tissue weight in mice. Conditions: dose 0,3 mg/kg once daily by gavage; fat tissue weighed on day 5. The source says:
b) In der zweiten Versuchsanordnung zur Erfassung antiadipö-ser Wirkung der erfindungsgemäßen Verbindungen wurde die Abnahme des Fettgewebes am Beispiel des Ovarfettgewebes gemessen. Die Verbindungen wurden zu diesem Zwecke Mäusen einmal täglich mittels Schlundsonde in 1,5%iger Methylzellulosesuspension appliziert. Am fünften Tag wurde das Ovarfettgewebe herauspräpariert und gewogen. In der nachfolgenden Tabelle sind die Ergebnisse in % einer mitgeführten Kontrollgruppe wiedergegeben.

[5] abbreviates: dose 0,3 mg/kg oral, values in ( ) = not significant (p > 0.05).

Regarding `CC(Cc1ccc(OCCO)cc1)NCC(O)c1cccc(Cl)n1` (stereo not drawn) [Beispiel 2, N-[2-(4-(2-Hydroxyethoxy)phenyl)-1-methylethyl]-2-hydroxy-2-(6-chlor-pyridin-2-yl)ethanamin-hydrochlorid], the “Änderung der Herzfrequenz, % Änderung vom Wert der Kontrollgruppe” value in the series with Mäusen [1] (setting [5]) was “(+6,9) %”. Also, the “Anstieg des Glyzerins im Serum, % Änderung vom Wert der Kontrollgruppe” value in series [2] (dose 0,1 mg/kg by gavage) is reported as “+454%”. Further, the “Blutzuckersenkungen, % Änderung vom Wert der Kontrollgruppe” value in series [3] (dose 0,1 mg/kg by gavage) is given as -64%.

With `CC(Cc1ccc(OCC(=O)O)cc1)NCC(O)c1cccc(Cl)n1` (stereo not drawn) [Beispiel 3, N-[2-(4-Carboxymethoxyphenyl)-1-methylethyl]-2-hydroxy-2-(6-chlor-pyridin-2-yl)ethanamin], the “Anstieg des Glyzerins im Serum, % Änderung vom Wert der Kontrollgruppe” value in series [2] (dose 0,3 mg/kg by gavage) is “+309%”.

As for `CC(Cc1ccc(OCC(=O)O)cc1)NCC(O)c1cccc(Cl)n1` (single isomer, unassigned) [Beispiel 4, N-[2-(4-Carboxymethoxyphenyl)-1-methylethyl]-2-hydroxy-2-(6-chlor-pyridin-2-yl)ethanamin], the “Anstieg des Glyzerins im Serum, % Änderung vom Wert der Kontrollgruppe” value in series [2] (dose 0,3 mg/kg by gavage) is on record as “+891%”.

As for `CC(Cc1ccc(OCCO)cc1)NCC(O)c1cccc(Cl)n1` (single isomer, unassigned) [Beispiel 5], the “Änderung der Herzfrequenz, % Änderung vom Wert der Kontrollgruppe” value in the series on Mäusen [1] (setting [5]) is on record as “(+27) %”. Also, in the series on Mäusen [4], the “Abnahme des Ovarfettgewebes, % Änderung vom Wert der Kontrollgruppe” value is recorded as -54%. The “Anstieg des Glyzerins im Serum, % Änderung vom Wert der Kontrollgruppe” value in series [2] (dose 0,3 mg/kg by gavage) was “+878%”. Besides, the “Blutzuckersenkungen, % Änderung vom Wert der Kontrollgruppe” value in series [3] (dose 0,3 mg/kg by gavage) was -66%.

In the case of `COC(=O)COc1ccc(CC(C)NCC(O)c2cccc(Cl)n2)cc1` (stereo not drawn) [Beispiel 1, N-[2-(4-Carbomethoxymethoxyphenyl)-1-methylethyl]-2-hydroxy-2-(6-chlor-pyridin-2-yl)ethanamin-hydrochlorid], the “Änderung der Herzfrequenz, % Änderung vom Wert der Kontrollgruppe” value in the series on Mäusen [1] (dose 10 mg/kg oral) is “+35%”. The “Anstieg des Glyzerins im Serum, % Änderung vom Wert der Kontrollgruppe” value in series [2] (dose 1,0 mg/kg by gavage) is “+882%”. Also, in series [3] (dose 1,0 mg/kg by gavage), the “Blutzuckersenkungen, % Änderung vom Wert der Kontrollgruppe” value was -66%.
